Earlier results, collected in article PMC7604311, “Caprine Bactenecins as Promising Tools for Developing New Antimicrobial and Antitumor Drugs” (Frontiers in Cellular and Infection Microbiology, 2020).

Experiments:
Set-up in all cases: key to Susceptibility category: R – resistant; I – intermediate; S – susceptible
Conditions in all cases: initial susceptibility testing of the clinical isolate; ref supplying institutions; cited from earlier work
P. aeruginosa MDR 522/17 = system: P. aeruginosa MDR 522/17
E. coli ESBL 521/17 = system: E. coli ESBL 521/17
[1] = system: K. pneumoniae ESBL 344/17;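 further: each antibiotic is scored as S (susceptible), I (intermediate) or R (resistant), with its MIC listed alongside, in a susceptibility profile of the clinical isolate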
S. aureus 1399/17 = system: S. aureus 1399/17
A. baumannii 7226/16 = system: A. baumannii 7226/16
Source text: page 1: Supplementary Material Supplementary Table 1. Susceptibility profiles of tested clinical isolates of bacteria. Gram-negative: Gram-positive: antibiotic E. coli A. baumannii P. aeruginosa K. pneumoniae antibiotic S. aureus ESBL 521/17 7226/16 MDR 522/17 ESBL 344/17 1399/17 AMP* R [≥32] R [≥32 ] R [≥32 ] R [≥32] AMP* R [≥32 ] AMC R [16] - - S [≤2] AMC - CTX R [≥64] - - S [≤1] AMX - CAZ R [≥64] - R [≥64] S [≤1] AZM R [≥4] FEP R [≥64] - R [≥64] S [≤1] VAN S [≤2] ATM R [≥64] - - S [≤1] DOX I [2] IPM S [≤1] R [≥16] I [8] S [≤1] CLI I [2] MEM S [≤0.25 ] R [≥32 ] R [≥16] S [≤0.25] MEM I [4] AM ...

Molecule: CC(C)(O/N=C(\C(=O)N[C@@H]1C(=O)N2C(C(=O)[O-])=C(C[n+]3ccccc3)CS[C@H]12)c1csc(N)n1)C(=O)O [CAZ, ceftazidime]
- MIC of antibiotic (P. aeruginosa MDR 522/17): ≥ 64 µg/mL
- Susceptibility category (P. aeruginosa MDR 522/17): R
- MIC of antibiotic (E. coli ESBL 521/17): ≥ 64 µg/mL
- Susceptibility category (E. coli ESBL 521/17): R
- MIC of antibiotic [1]: ≤ 1 µg/mL
- Susceptibility category [1]: S

Molecule: C[C@@H](O)[C@H]1C(=O)N2C(C(=O)O)=C(S[C@@H]3CN[C@H](C(=O)N(C)C)C3)[C@H](C)[C@H]12 [MEM, meropenem]
- MIC of antibiotic (P. aeruginosa MDR 522/17): ≥ 16 µg/mL
- Susceptibility category (P. aeruginosa MDR 522/17): R
- MIC of antibiotic (E. coli ESBL 521/17): ≤ 0.25 µg/mL
- Susceptibility category (E. coli ESBL 521/17): S
- MIC of antibiotic (S. aureus 1399/17): 4 µg/mL
- Susceptibility category (S. aureus 1399/17): I
- MIC of antibiotic (A. baumannii 7226/16): ≥ 32 µg/mL
- Susceptibility category (A. baumannii 7226/16): R
- MIC of antibiotic [1]: ≤ 0.25 µg/mL
- Susceptibility category [1]: S

Molecule: O=C1CN(/N=C/c2ccc([N+](=O)[O-])o2)C(=O)N1 [NIT, nitrofurantoin]
- MIC of antibiotic (E. coli ESBL 521/17): 128 µg/mL
- Susceptibility category (E. coli ESBL 521/17): R

Molecule: trimethoprim–sulfamethoxazole [SXT]
- MIC of antibiotic (E. coli ESBL 521/17): ≥ 320 µg/mL
- Susceptibility category (E. coli ESBL 521/17): R
- MIC of antibiotic (A. baumannii 7226/16): ≥ 320 µg/mL
- Susceptibility category (A. baumannii 7226/16): R
- MIC of antibiotic [1]: ≤ 20 µg/mL
- Susceptibility category [1]: S

Molecule: CC[C@H]1OC(=O)[C@H](C)[C@@H](O[C@H]2C[C@@](C)(OC)[C@@H](O)[C@H](C)O2)[C@H](C)[C@@H](O[C@@H]2O[C@H](C)C[C@H](N(C)C)[C@H]2O)[C@](C)(O)C[C@@H](C)CN(C)[C@H](C)[C@@H](O)[C@]1(C)O [AZM, azithromycin]
- MIC of antibiotic (S. aureus 1399/17): ≥ 4 µg/mL
- Susceptibility category (S. aureus 1399/17): R

Molecule: CNC(C)C1CCC(N)C(OC2C(N)CC(N)C(OC3OCC(C)(O)C(NC)C3O)C2O)O1 (stereo not drawn) [GEN, gentamicin]
- MIC of antibiotic (P. aeruginosa MDR 522/17): ≥ 16 µg/mL
- Susceptibility category (P. aeruginosa MDR 522/17): R
- MIC of antibiotic (E. coli ESBL 521/17): ≤ 1 µg/mL
- Susceptibility category (E. coli ESBL 521/17): S
- MIC of antibiotic (S. aureus 1399/17): ≥ 32 µg/mL
- Susceptibility category (S. aureus 1399/17): R
- MIC of antibiotic (A. baumannii 7226/16): ≥ 16 µg/mL
- Susceptibility category (A. baumannii 7226/16): R
- MIC of antibiotic [1]: ≤ 1 µg/mL
- Susceptibility category [1]: S

Molecule: CCN[C@@H]1C[C@H](N)[C@@H](O[C@H]2OC(CN)=CC[C@H]2N)[C@H](O)[C@H]1O[C@H]1OC[C@](C)(O)[C@H](NC)[C@H]1O [NET, netilmicin]
- MIC of antibiotic (P. aeruginosa MDR 522/17): ≥ 32 µg/mL
- Susceptibility category (P. aeruginosa MDR 522/17): R
- MIC of antibiotic (E. coli ESBL 521/17): 8 µg/mL
- Susceptibility category (E. coli ESBL 521/17): R
- MIC of antibiotic [1]: ≤ 1 µg/mL
- Susceptibility category [1]: S

Molecule: Cc1onc(-c2ccccc2)c1C(=O)N[C@@H]1C(=O)N2[C@@H]1SC(C)(C)[C@@H]2C(=O)O [OX, oxacillin]
- MIC of antibiotic (S. aureus 1399/17): ≥ 32 µg/mL
- Susceptibility category (S. aureus 1399/17): R

Molecule: amoxicillin–clavulanic acid [AMC]
- MIC of antibiotic (E. coli ESBL 521/17): 16 µg/mL
- Susceptibility category (E. coli ESBL 521/17): R
- MIC of antibiotic [1]: ≤ 2 µg/mL
- Susceptibility category [1]: S

Molecule: CO/N=C(\C(=O)N[C@@H]1C(=O)N2C(C(=O)[O-])=C(C[N+]3(C)CCCC3)CS[C@H]12)c1csc(N)n1 [FEP, cefepime]
- MIC of antibiotic (P. aeruginosa MDR 522/17): ≥ 64 µg/mL
- Susceptibility category (P. aeruginosa MDR 522/17): R
- MIC of antibiotic (E. coli ESBL 521/17): ≥ 64 µg/mL
- Susceptibility category (E. coli ESBL 521/17): R
- MIC of antibiotic [1]: ≤ 1 µg/mL
- Susceptibility category [1]: S

Molecule: colistin [CST]
- MIC of antibiotic (P. aeruginosa MDR 522/17): ≥ 16 µg/mL
- Susceptibility category (P. aeruginosa MDR 522/17): R
- MIC of antibiotic (E. coli ESBL 521/17): ≤ 0.5 µg/mL
- Susceptibility category (E. coli ESBL 521/17): S
- MIC of antibiotic [1]: ≤ 0.5 µg/mL
- Susceptibility category [1]: S

Molecule: CN[C@H](CC(C)C)C(=O)N[C@H]1C(=O)N[C@@H](CC(N)=O)C(=O)N[C@H]2C(=O)N[C@H]3C(=O)N[C@H](C(=O)N[C@H](C(=O)O)c4cc(O)cc(O)c4-c4cc3ccc4O)[C@H](O)c3ccc(c(Cl)c3)Oc3cc2cc(c3O[C@@H]2O[C@H](CO)[C@@H](O)[C@H](O)[C@H]2O[C@H]2C[C@](C)(N)[C@H](O)[C@H](C)O2)Oc2ccc(cc2Cl)[C@H]1O [VAN, vancomycin]
- MIC of antibiotic (S. aureus 1399/17): ≤ 2 µg/mL
- Susceptibility category (S. aureus 1399/17): S

Molecule: CN(C)c1cc(NC(=O)CNC(C)(C)C)c(O)c2c1C[C@H]1C[C@H]3[C@H](N(C)C)C(O)=C(C(N)=O)C(=O)[C@@]3(O)C(O)=C1C2=O [TGC, tigecycline]
- MIC of antibiotic (A. baumannii 7226/16): 4 µg/mL
- Susceptibility category (A. baumannii 7226/16): I

Molecule: C[C@H]1c2cccc(O)c2C(=O)C2=C(O)[C@]3(O)C(=O)C(C(N)=O)=C(O)[C@@H](N(C)C)[C@@H]3[C@@H](O)[C@@H]21 [DOX, doxycycline]
- MIC of antibiotic (S. aureus 1399/17): 2 µg/mL
- Susceptibility category (S. aureus 1399/17): I

Molecule: CC1COc2c(N3CCN(C)CC3)c(F)cc3c(=O)c(C(=O)O)cn1c23 (stereo not drawn) [OFL, ofloxacin]
- MIC of antibiotic (S. aureus 1399/17): ≥ 32 µg/mL
- Susceptibility category (S. aureus 1399/17): R

Molecule: CCC[C@@H]1C[C@@H](C(=O)N[C@@H]([C@H]2O[C@H](SC)[C@H](O)[C@@H](O)[C@H]2O)[C@H](C)Cl)N(C)C1 [CLI, clindamycin]
- MIC of antibiotic (S. aureus 1399/17): 2 µg/mL
- Susceptibility category (S. aureus 1399/17): I

Molecule: CC[C@H]1OC(=O)[C@H](C)[C@@H](O[C@H]2C[C@@](C)(OC)[C@@H](O)[C@H](C)O2)[C@H](C)[C@@H](O[C@@H]2O[C@H](C)C[C@H](N(C)C)[C@H]2O)[C@](C)(O)C[C@@H](C)C(=O)[C@H](C)[C@@H](O)[C@]1(C)O [ERY, erythromycin]
- MIC of antibiotic (P. aeruginosa MDR 522/17): ≥ 32 µg/mL
- Susceptibility category (P. aeruginosa MDR 522/17): R
- MIC of antibiotic (E. coli ESBL 521/17): ≥ 32 µg/mL
- Susceptibility category (E. coli ESBL 521/17): R
- MIC of antibiotic (S. aureus 1399/17): ≥ 32 µg/mL
- Susceptibility category (S. aureus 1399/17): R
- MIC of antibiotic (A. baumannii 7226/16): ≥ 32 µg/mL
- Susceptibility category (A. baumannii 7226/16): R
- MIC of antibiotic [1]: ≥ 32 µg/mL
- Susceptibility category [1]: R

Molecule: NCC[C@H](O)C(=O)N[C@@H]1C[C@H](N)[C@@H](O[C@H]2O[C@H](CN)[C@@H](O)[C@H](O)[C@H]2O)[C@H](O)[C@H]1O[C@H]1O[C@H](CO)[C@@H](O)[C@H](N)[C@H]1O [AMK, amikacin]
- MIC of antibiotic (P. aeruginosa MDR 522/17): 4 µg/mL
- Susceptibility category (P. aeruginosa MDR 522/17): I
- MIC of antibiotic (E. coli ESBL 521/17): 16 µg/mL
- Susceptibility category (E. coli ESBL 521/17): I
- MIC of antibiotic (S. aureus 1399/17): ≥ 64 µg/mL
- Susceptibility category (S. aureus 1399/17): R
- MIC of antibiotic (A. baumannii 7226/16): 8 µg/mL
- Susceptibility category (A. baumannii 7226/16): I
- MIC of antibiotic [1]: ≤ 2 µg/mL
- Susceptibility category [1]: S

Molecule: C[C@@H]1O[C@@H]1P(=O)(O)O [FOF, fosfomycin]
- MIC of antibiotic (E. coli ESBL 521/17): ≤ 16 µg/mL
- Susceptibility category (E. coli ESBL 521/17): S
- MIC of antibiotic [1]: ≤ 16 µg/mL
- Susceptibility category [1]: S

Molecule: C[C@H]1COc2c(N3CCN(C)CC3)c(F)cc3c(=O)c(C(=O)O)cn1c23 [LVX, levofloxacin]
- MIC of antibiotic (S. aureus 1399/17): ≤ 1 µg/mL
- Susceptibility category (S. aureus 1399/17): S

Molecule: C[C@@H](O)[C@H]1C(=O)N2C(C(=O)O)=C(SCCN=CN)C[C@H]12 [IPM, imipenem]
- MIC of antibiotic (P. aeruginosa MDR 522/17): 8 µg/mL
- Susceptibility category (P. aeruginosa MDR 522/17): I
- MIC of antibiotic (E. coli ESBL 521/17): ≤ 1 µg/mL
- Susceptibility category (E. coli ESBL 521/17): S
- MIC of antibiotic (A. baumannii 7226/16): ≥ 16 µg/mL
- Susceptibility category (A. baumannii 7226/16): R
- MIC of antibiotic [1]: ≤ 1 µg/mL
- Susceptibility category [1]: S

Molecule: CO/N=C(\C(=O)N[C@@H]1C(=O)N2C(C(=O)O)=C(COC(C)=O)CS[C@H]12)c1csc(N)n1 [CTX, cefotaxime]
- MIC of antibiotic (E. coli ESBL 521/17): ≥ 64 µg/mL
- Susceptibility category (E. coli ESBL 521/17): R
- MIC of antibiotic [1]: ≤ 1 µg/mL
- Susceptibility category [1]: S

Molecule: CC[C@H]1OC(=O)[C@H](C)[C@@H](O[C@H]2C[C@@](C)(OC)[C@@H](O)[C@H](C)O2)[C@H](C)[C@@H](O[C@@H]2O[C@H](C)C[C@H](N(C)C)[C@H]2O)[C@](C)(O)C[C@@H](C)/C(=N\OCOCCOC)[C@H](C)[C@@H](O)[C@]1(C)O [RXM, roxithromycin]
- MIC of antibiotic (S. aureus 1399/17): 2 µg/mL
- Susceptibility category (S. aureus 1399/17): I

Molecule: C[C@H]1[C@H](NC(=O)/C(=N\OC(C)(C)C(=O)O)c2csc(N)n2)C(=O)N1S(=O)(=O)O [ATM, aztreonam]
- MIC of antibiotic (E. coli ESBL 521/17): ≥ 64 µg/mL
- Susceptibility category (E. coli ESBL 521/17): R
- MIC of antibiotic [1]: ≤ 1 µg/mL
- Susceptibility category [1]: S

Molecule: ampicillin-sulbactam [SAM]
- MIC of antibiotic (A. baumannii 7226/16): 16 µg/mL
- Susceptibility category (A. baumannii 7226/16): I

Molecule: CC1(C)S[C@@H]2[C@H](NC(=O)[C@H](N)c3ccccc3)C(=O)N2[C@H]1C(=O)O [AMP*, ampicillin]
- MIC of antibiotic (P. aeruginosa MDR 522/17): ≥ 32 µg/mL
- Susceptibility category (P. aeruginosa MDR 522/17): R
- MIC of antibiotic (E. coli ESBL 521/17): ≥ 32 µg/mL
- Susceptibility category (E. coli ESBL 521/17): R
- MIC of antibiotic (S. aureus 1399/17): ≥ 32 µg/mL
- Susceptibility category (S. aureus 1399/17): R
- MIC of antibiotic (A. baumannii 7226/16): ≥ 32 µg/mL
- Susceptibility category (A. baumannii 7226/16): R
- MIC of antibiotic [1]: ≥ 32 µg/mL
- Susceptibility category [1]: R
